Experimental data taken from patent US11306079B2, “3-(5-amino-pyrazin-2-yl)-benzenesulfonamide derivatives and related compounds as PI3K-gamma kinase inhibitors” (Incyte Corporation, priority 2017, dated 2022).
Counter-ions that a name gives are not always drawn.

Experiments:
[1] = system: Phosphorylated Ribosomal Protein S6 (RPS6) in THP-1 cells; assay: THP-1 RPS6 ELISA Assay; format: cell-based; conditions: Homo sapiens; serum starved THP-1 cells, 2 hours with compound, 10 nM MCP-1 for 15 minutes, Phospho-RPS6 ELISA; read-out: PI3Kγ_THP1_RPS6_ELISA IC50
Procedure: Example A. THP-1 RPS6 ELISA Assay
To measure the Phosphorylated Ribosomal Protein S6 (RPS6) in cell lysates, THP-1 cells (Human Acute Monocytic Leukemia) are purchased from ATCC (Manassas, Va.) and maintained in RPMI with 10% FBS (Gibco/Life Technologies, Carlsbad, Calif.). For the assay, THP-1 cells are serum starved overnight in RPMI, then plated in RPMI (2×10^5 cells/well in 90 μL) into 96-well flat-bottom tissue culture treated plates (Corning, Corning, N.Y.), in the presence or absence of a concentration range of test compounds. Covered plates are incubated for 2 hours at 37° C., 5% CO2 then treated with or without 10 nM MCP-1 (MYBioSource, San Diego, Calif.) for 15 minutes at 37° C., 5% CO2. Plates are centrifuged at 1600 RPM and supernatants are removed. Cells are lysed in Lysis Buffer (Cell Signaling, Danvers, Mass.) with Protease Inhibitor (Calbiochem/EMD, Germany), PMSF (Sigma, St Louis Mo.), HALTS (Thermo Fisher, Rockford, Ill.) for 30 min on wet ice. Cell lysates are frozen at −80° C. before testing. The lysates are tested in the Human/Mouse/Rat Phospho-RPS6 ELISA (R&D Systems, Inc. Minn, Minn.). The plate is measured using a microplate reader (SpectraMax M5—Molecular Devices, LLC Sunnyvale, Calif.) set to 450 nm with a wavelength correction of 540. IC50 determination is performed by fitting the curve of inhibitor percent inhibition versus the log of the inhibitor concentration using the GraphPad Prism 5.0 software.

[2] = target: PI3Kγ (p110γ) Recombinant Human Protein (Homo sapiens (Human), UniProt P48736); assay: PI3K-γ Scintillation Proximity Assay; format: biochemical; conditions: 20 μM PIP2, 2 μM ATP, 13 nM PI3Kγ, 120 min, room temperature
Text: Example B. PI3K-γ Scintillation Proximity Assay
(§1) [γ-^33P]ATP (10 mCi/mL) and Wheat Germ Agglutinin (WGA) YSi SPA Scintillation Beads was purchased from Perkin-Elmer (Waltham, Mass.). Lipid kinase substrate, D-myo-Phosphatidylinositol 4,5-bisphosphate (PtdIns(4,5)P2)D (+)-sn-1,2-di-O-octanoylglyceryl, 3-O-phospho linked (PIP2), CAS 204858-53-7, was purchased from Echelon Biosciences (Salt Lake City, Utah). PI3Kγ (p110γ) Recombinant Human Protein was purchased from Life technology (Grand island, NY), ATP, MgCl2, DTT, EDTA, MOPS and CHAPS were purchased from Sigma-Aldrich (St. Louis, Mo.).
(§2) The kinase reaction was conducted in polystyrene 384-well Greiner Bio-one white plate from Thermo Fisher Scientific in a final volume of 25 μL. Inhibitors were first diluted serially in DMSO and added to the plate wells before the addition of other reaction components. The final concentration of DMSO in the assay was 2%. The PI3Kγ assay was carried out at room temperature in 20 mM MOPS, pH 6.7, 10 mM MgCl2, 5 mM DTT and CHAPS 0.03%. Reactions were initiated by the addition of ATP, the final reaction mixture consisted of 20 μM PIP2, 2 μM ATP, 0.5 μCi [γ-^33P] ATP, 13 nM PI3Kγ. Reactions were incubated for 120 min and terminated by the addition of 40 μL SPA beads suspended in quench buffer: 163 mM potassium phosphate pH 7.8, 20% glycerol, 25 mM EDTA. The final concentration of SPA beads is 1.0 mg/mL. After the plate sealing, plates were shaken overnight at room temperature and centrifuged at 1500 rpm for 10 min, the radioactivity of the product was determined by scintillation counting on Topcount (Perkin-Elmer). IC50 determination was performed by fitting the curve of percent of the solvent control activity versus the log of the inhibitor concentration using the GraphPad Prism 6.0 software.

[3] = target: PI3Kδ (p110δ/p85α) Recombinant Human Protein (Homo sapiens (Human), UniProt O00329); assay: PI3Kδ Scintillation Proximity Assay; format: biochemical; conditions: 20 μM PIP2, 2 μM ATP, 3.4 nM PI3Kδ, 120 min, room temperature
Text: Example C. PI3Kδ Scintillation Proximity Assay
as §1, with “PI3Kδ (p110δ/p85α)” for “PI3Kγ (p110γ)”, “Eurofins (St Charles, Mo.).” for “Life technology (Grand island, NY),”
as §2, with “PI3Kδ” for “PI3Kγ”, “3.4” for “13”, “PI3Kδ.” for “PI3Kγ.”

Sequence of PI3Kδ (p110δ/p85α) Recombinant Human Protein (O00329 whole entry): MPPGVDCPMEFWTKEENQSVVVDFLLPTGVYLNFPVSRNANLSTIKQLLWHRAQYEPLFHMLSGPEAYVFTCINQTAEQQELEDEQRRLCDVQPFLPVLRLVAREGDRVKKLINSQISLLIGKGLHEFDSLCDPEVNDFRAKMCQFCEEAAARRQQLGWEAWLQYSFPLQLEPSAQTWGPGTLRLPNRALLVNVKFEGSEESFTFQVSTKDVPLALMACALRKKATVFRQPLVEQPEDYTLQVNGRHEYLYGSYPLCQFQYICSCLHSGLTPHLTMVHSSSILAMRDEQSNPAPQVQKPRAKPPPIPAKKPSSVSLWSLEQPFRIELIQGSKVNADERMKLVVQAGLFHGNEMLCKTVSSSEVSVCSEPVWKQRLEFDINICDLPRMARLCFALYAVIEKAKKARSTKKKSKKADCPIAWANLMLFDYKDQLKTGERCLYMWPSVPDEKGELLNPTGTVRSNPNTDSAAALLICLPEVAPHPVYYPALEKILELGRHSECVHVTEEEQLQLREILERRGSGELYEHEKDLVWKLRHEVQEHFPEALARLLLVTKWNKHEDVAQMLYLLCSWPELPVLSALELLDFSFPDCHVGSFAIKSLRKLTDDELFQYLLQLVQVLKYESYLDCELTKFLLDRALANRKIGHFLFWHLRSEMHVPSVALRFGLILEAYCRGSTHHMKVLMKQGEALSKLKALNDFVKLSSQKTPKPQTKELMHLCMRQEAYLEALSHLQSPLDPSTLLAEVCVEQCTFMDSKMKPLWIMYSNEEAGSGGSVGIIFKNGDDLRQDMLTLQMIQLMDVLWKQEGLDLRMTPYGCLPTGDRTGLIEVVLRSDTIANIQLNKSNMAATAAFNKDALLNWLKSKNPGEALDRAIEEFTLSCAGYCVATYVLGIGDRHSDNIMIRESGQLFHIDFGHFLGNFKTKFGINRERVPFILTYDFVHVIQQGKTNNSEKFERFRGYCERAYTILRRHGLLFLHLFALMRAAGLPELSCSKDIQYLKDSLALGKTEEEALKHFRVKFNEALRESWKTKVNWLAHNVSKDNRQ
Sequence of PI3Kδ (p110δ/p85α) Recombinant Human Protein (P27986 whole entry partner): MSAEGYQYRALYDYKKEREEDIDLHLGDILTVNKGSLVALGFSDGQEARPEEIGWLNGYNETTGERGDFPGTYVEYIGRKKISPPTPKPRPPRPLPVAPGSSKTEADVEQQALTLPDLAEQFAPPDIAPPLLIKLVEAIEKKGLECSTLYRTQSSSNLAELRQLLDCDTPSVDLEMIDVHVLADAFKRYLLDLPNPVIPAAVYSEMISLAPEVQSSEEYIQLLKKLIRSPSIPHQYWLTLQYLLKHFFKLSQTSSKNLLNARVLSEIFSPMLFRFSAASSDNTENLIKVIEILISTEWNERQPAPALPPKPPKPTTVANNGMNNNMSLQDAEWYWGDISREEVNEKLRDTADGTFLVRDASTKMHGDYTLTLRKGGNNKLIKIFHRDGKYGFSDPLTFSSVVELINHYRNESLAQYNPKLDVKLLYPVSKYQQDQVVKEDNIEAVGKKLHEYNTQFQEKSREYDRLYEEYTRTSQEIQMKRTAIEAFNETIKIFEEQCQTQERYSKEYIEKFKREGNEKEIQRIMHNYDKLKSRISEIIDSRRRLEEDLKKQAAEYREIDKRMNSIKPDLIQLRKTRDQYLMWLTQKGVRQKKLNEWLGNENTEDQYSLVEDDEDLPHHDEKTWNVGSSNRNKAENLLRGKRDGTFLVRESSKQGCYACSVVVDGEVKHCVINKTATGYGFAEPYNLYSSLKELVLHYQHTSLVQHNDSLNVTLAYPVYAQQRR
Sequence of PI3Kγ (p110γ) Recombinant Human Protein (P48736 whole entry): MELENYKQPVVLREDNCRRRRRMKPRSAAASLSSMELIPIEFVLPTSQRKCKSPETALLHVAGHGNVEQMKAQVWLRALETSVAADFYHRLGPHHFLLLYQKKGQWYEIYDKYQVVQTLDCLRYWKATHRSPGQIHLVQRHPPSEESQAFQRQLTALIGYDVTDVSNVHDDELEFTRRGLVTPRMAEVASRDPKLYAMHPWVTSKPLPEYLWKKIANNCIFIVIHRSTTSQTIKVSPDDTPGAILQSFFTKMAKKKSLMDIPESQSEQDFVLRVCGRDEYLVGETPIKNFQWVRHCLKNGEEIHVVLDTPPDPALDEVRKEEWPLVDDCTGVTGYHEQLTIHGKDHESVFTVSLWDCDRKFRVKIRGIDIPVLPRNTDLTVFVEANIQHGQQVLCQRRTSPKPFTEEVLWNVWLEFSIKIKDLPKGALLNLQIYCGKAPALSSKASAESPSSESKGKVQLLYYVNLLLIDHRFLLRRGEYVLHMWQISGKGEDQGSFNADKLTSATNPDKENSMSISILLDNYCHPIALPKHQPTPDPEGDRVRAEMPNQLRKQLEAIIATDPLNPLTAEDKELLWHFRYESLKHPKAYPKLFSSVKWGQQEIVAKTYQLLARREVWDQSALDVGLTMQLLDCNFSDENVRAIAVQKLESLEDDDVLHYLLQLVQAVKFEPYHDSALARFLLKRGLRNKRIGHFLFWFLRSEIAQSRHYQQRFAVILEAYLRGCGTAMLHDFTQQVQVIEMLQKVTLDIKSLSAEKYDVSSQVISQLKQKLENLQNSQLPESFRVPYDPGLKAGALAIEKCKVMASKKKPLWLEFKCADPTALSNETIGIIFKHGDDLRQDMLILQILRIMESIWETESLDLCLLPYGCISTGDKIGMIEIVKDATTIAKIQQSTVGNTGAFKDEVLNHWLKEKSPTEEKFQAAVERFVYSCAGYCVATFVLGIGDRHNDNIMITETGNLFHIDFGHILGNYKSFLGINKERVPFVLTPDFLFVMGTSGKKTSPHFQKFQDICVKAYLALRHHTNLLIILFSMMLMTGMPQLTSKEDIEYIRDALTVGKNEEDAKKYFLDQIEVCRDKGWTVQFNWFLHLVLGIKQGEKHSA

SMILES	IC50 [1]	IC50 [2]	IC50 [3]
Cc1ncc(-c2nc(-c3cc(S(=O)(=O)NC45CCC(CO)(C4)C5)ccc3C)cnc2N)s1 [Example 5, 3-(5-Amino-6-(2-methylthiazol-5-yl)pyrazin-2-yl)-N-(4-(hydroxymethyl)bicyclo[2.1.1]hexan-1-yl)-4-methylbenzenesulfonamide trifluoroacetate salt]	≤ 100 nM	≤ 100 nM	≤ 100 nM
Cc1ncc(-c2nc(-c3cc(S(=O)(=O)NC45CCC(CO)(CC4)OC5)ccc3C)cnc2N)s1 [Example 6, 3-(5-Amino-6-(2-methylthiazol-5-yl)pyrazin-2-yl)-N-(1-(hydroxymethyl)-2-oxabicyclo[2.2.2]octan-4-yl)-4-methylbenzenesulfonamide trifluoroacetate salt]	≤ 100 nM	≤ 100 nM	≤ 100 nM
Cc1ncc(-c2nc(-c3cc(S(=O)(=O)NC45CCC(O)(CC4)C5)ccc3C)cnc2N)s1 [Example 7, 3-(5-Amino-6-(2-methylthiazol-5-yl)pyrazin-2-yl)-N-(4-hydroxybicyclo[2.2.1]heptan-1-yl)-4-methylbenzenesulfonamide trifluoroacetate salt]	≤ 100 nM	≤ 100 nM	≤ 100 nM
Cc1ncc(-c2nc(-c3cc(S(=O)(=O)NC45COC(C(C)O)(C4)C5)ccc3C)cnc2N)s1 (stereo not drawn) [Example 8, 3-(5-Amino-6-(2-methylthiazol-5-yl)pyrazin-2-yl)-N-(1-(1-hydroxyethyl)-2-oxabicyclo[2.1.1]hexan-4-yl)-4-methylbenzenesulfonamide trifluoroacetate salt]	≤ 100 nM	≤ 100 nM	≤ 100 nM
Cc1ncc(-c2nc(-c3cc(S(=O)(=O)NC45COC(CO)(C4)C5)cc(F)c3C)cnc2N)s1 [Example 9, 3-(5-Amino-6-(2-methylthiazol-5-yl)pyrazin-2-yl)-5-fluoro-N-(1-(hydroxymethyl)-2-oxabicyclo[2.1.1]hexan-4-yl)-4-methylbenzenesulfonamide trifluoroacetate Salt]	≤ 100 nM	≤ 100 nM	≤ 100 nM
Cc1ccc(S(=O)(=O)NC23CC(C#N)(C2)C3)cc1-c1cnc(N)c(-c2cn(C)nc2C)n1 [Example 10, 3-(5-Amino-6-(1,3-dimethyl-1H-pyrazol-4-yl)pyrazin-2-yl)-N-(3-cyanobicyclo[1.1.1]pentan-1-yl)-4-methylbenzenesulfonamide Trifluoroacetate Salt]	≤ 500 nM	≤ 100 nM	≤ 100 nM
Cc1ccc(S(=O)(=O)NC23CCC(C#N)(C2)C3)cc1-c1cnc(N)c(-c2cn(C)nc2C)n1 [Example 11, 3-(5-Amino-6-(1,3-dimethyl-1H-pyrazol-4-yl)pyrazin-2-yl)-N-(4-cyanobicyclo[2.1.1]hexan-1-yl)-4-methylbenzensulfonamide trifluoroacetate salt]	≤ 500 nM	≤ 100 nM	≤ 500 nM
Cc1ccc(S(=O)(=O)NC23COC(C)(C2)C3)cc1-c1cnc(N)c(-c2cn(C)nc2C)n1 [Example 12, 3-(5-Amino-6-(1,3-dimethyl-1H-pyrazol-4-yl)pyrazin-2-yl)-4-methyl-N-(1-methyl-2-oxabicyclo[2.1.1]hexan-4-yl)benzenesulfonamide trifluoroacetate salt]	≤ 500 nM	≤ 100 nM	≤ 500 nM
Cc1ccc(S(=O)(=O)NC23CCC(CO)(C2)C3)cc1-c1cnc(N)c(-c2cn(C)nc2C)n1 [Example 13, 3-(5-Amino-6-(1,3-dimethyl-1H-pyrazol-4-yl)pyrazin-2-yl)-N-(4-(hydroxymethyl)bicyclo[2.1.1]hexan-1-yl)-4-methylbenzenesulfonamide trifluoroacetate salt]	≤ 500 nM	≤ 100 nM	≤ 500 nM
Cc1ccc(S(=O)(=O)NC23COC(CO)(C2)C3)cc1-c1cnc(N)c(-c2cn(C)nc2C)n1 [Example 14, 3-(5-Amino-6-(1,3-dimethyl-1H-pyrazol-4-yl)pyrazin-2-yl)-N-(1-(hydroxymethyl)-2-oxabicyclo[2.1.1]hexan-4-yl)-4-methylbenzenesulfonamide trifluoroacetate salt]	≤ 500 nM	≤ 100 nM	≤ 500 nM
Cc1ccc(S(=O)(=O)NC23CC(CO)(C2)C3)cc1-c1cnc(N)c(-c2cn(C)nc2C)n1 [Example 15, 3-(5-amino-6-(1,3-dimethyl-1H-pyrazol-4-yl)pyrazin-2-yl)-N-(3-(hydroxymethyl)bicyclo[1.1.1]pentan-1-yl)-4-methylbenzenesulfonamide trifluoroacetate salt]	≤ 500 nM	≤ 100 nM	≤ 500 nM
Cc1ccc(S(=O)(=O)NC23CCC(O)(CC2)C3)cc1-c1cnc(N)c(-c2cccnc2)n1 [Example 16, 3-(5-Amino-6-(pyridin-3-yl)pyrazin-2-yl)-N-(4-hydroxybicyclo[2.2.1]heptan-1-yl)-4-methylbenzenesulfonamide Trifluoroacetate Salt]	≤ 500 nM	≤ 100 nM	≤ 100 nM
Cc1ccc(S(=O)(=O)NC23CCC(O)(CC2)C3)cc1-c1cnc(N)c(-c2ccncc2)n1 [Example 17, 3-(5-Amino-6-(pyridin-4-yl)pyrazin-2-yl)-N-(4-hydroxybicyclo[2.2.1]heptan-1-yl)-4-methylbenzenesulfonamide Trifluoroacetate Salt]	≤ 500 nM	≤ 100 nM	≤ 500 nM
Cc1cc(-c2nc(-c3cc(S(=O)(=O)NC45CCC(CO)(CC4)OC5)ccc3C)cnc2N)ccn1 [Example 18, 3-(5-Amino-6-(2-methylpyridin-4-yl)pyrazin-2-yl)-N-(1-(hydroxymethyl)-2-oxabicyclo[2.2.2]octan-4-yl)-4-methylbenzenesulfonamide Trifluoroacetate Salt]	≤ 500 nM	≤ 100 nM	≤ 500 nM
